How the values were obtained:
[1] = test system: laser-induced CNV; assay: laser-induced mouse model of choroidal neovascularization (CNV), CNV size by confocal microscopy; assay type: in vivo, C57BL/6 mice; details: for reduction in CNV size compared to control: p<0.005; for neovascular complex in laser spots, confocal micrograph: compared to control; for reduction of CNV size compared to control mice: injected subretinally into the eye, 5 μg; for reduction of CNV size compared to control mice / decrease in CNV size compared to control mice: control PBS; for decrease in CNV size compared to control mice: day 7 after laser; for effect on CNV size compared among adiponectin peptides (words): mouse model of CNV, route not stated
Description: Animals (C57BL/6 mice) were divided into 3 groups. CNV was induced by laser photocoagulation in group 1 (n=5) with the krypton red laser (50 μm spot size; 0.05 s duration; 250 mW), as previously described (Bora et al. 2003 Proc. Natl. Acad. Sci. USA 100:2679-2685; Bora et al. 2005 J. Immunol. 174:491-497) and no APN was administered to these mice. Three laser spots were placed in each eye close to the optic nerve. In group 2 (n=5), the mice were treated, i.p., with 25 μg of rAPN, one day before laser photocoagulation and every day after laser treatment until day 6. Group 3 animals received subretinal injections on days 0, 1, and 3 in one eye, the other eye received PBS as control. All the experiments were repeated three times.
We injected 50 μg peptide NH2-LQVYGDGDHNGLYADNVN-COOH (SEQ ID NO: 1, synthesized at Peptide Biochemical Research Inc. Seattle, USA; dissolved in PBS) intraperitoneally (i.p.) to mice (n=5) as well as intravitreally (i-vit.). Six i.p. injections were given, one preceding laser treatment and five following the laser treatment. Control group was given sterile PBS. One group (n=5) was photocoagulated on day 0 and on day 1 a single 30 μg i-vit. injection was given. All the experiments were repeated three times. Mice were sacrificed following perfusion with FITC dextran on day 7 and eyes removed and fixed in formaldehyde. Choroidal-scleral flat mounts were prepared and processed for immunostaining. Laser confocal micrographs were used to measure the size of CNV by Image-Pro-Plus software (Media Cybernetics, Inc. Silver Spring, Md.).
Seven days after laser treatment, the eyes of all animals were perfused with 1 ml of PBS containing 50 mg/ml fluorescein-labeled dextran (FITC-dextran; average molecular mass, 2×10^6; Sigma-Aldrich) and the animals were sacrificed. The eyes were harvested and fixed in 10% phosphate-buffered formalin, and retinal pigment epithelium (RPE)-choroid-scleral flat mounts were prepared as previously described (Bora et al. 2003 supra; Bora et al. 2005 supra.). RPE-choroid-scleral flat mounts were stained for elastin using a mAb specific for elastin (1.0 mg/ml; 1/2000 dilution; Sigma-Aldrich) followed by a Cy3-labeled secondary Ab (1.0 mg/ml; 1/2000 dilution; Sigma-Aldrich). The incidence and the size of CNV were determined by confocal microscopy. The size of the CNV complex was graded by morphometric analysis of the images (MetaMorph Image Analysis software package; Universal Imaging) obtained from confocal microscopy.

[2] = test system: VEGF; assay: RT-PCR of VEGF mRNA in choroids of laser-treated mice; assay type: in vivo, C57BL/6 mice; details: APN administered vs laser-treated mice without APN; FIG. 5; listed as APN
Description: Ten laser spots were placed in each eye of C57BL/6 mice as described below. Animals from each group (n=10/each time point) were sacrificed at days 1, 3, 5, and 7 post-laser treatment, RPE-choroid-scleral tissues harvested from the enucleated eyes were pooled separately for each time point and without laser treatment (control), and total RNA was prepared using SV Total RNA Isolation kit (Promega, Madison, Wis.). Equal amounts of the total RNA (0.2 μg) were used to detect the mRNA levels of GAPDH, VEGF, β-FGF and APN by RT-PCR using the reagents purchased from Applied Biosystems. The sense and antisense oligonucleotide primers were synthesized at Integrated DNA Technologies, and PCR used 30 cycles. The negative controls consisted of omission of RNA or reverse transcriptase in the reaction mixture. PCR products were analyzed on a 2% agarose gel and were examined by using the Molecular Analyst/PC program (Bio-Rad). RT-PCR was conducted using the following primers: GAPDH (forward (F), 5′-[…]-3′, SEQ ID NO; 5; reverse (R), 5′-[…]-3′, SEQ ID NO: 6); VEGF (F, 5′-GCGGGCTGCCTCGCAGTC-3′, SEQ ID NO: 7; R, 5′-[…]-3′, SEQ ID NO: 8); β-FGF (F, 5′-[…]-3′, SEQ ID NO: 9; R, 5′-[…]-3′, SEQ ID NO: 10); TGF-β2 (F, 5′-[…]-3′, SEQ ID NO: 11; R, 5′-[…]-3′, SEQ ID NO: 12); APN (F, 5′-[…]-3′, SEQ ID NO: 13; R, 5′-[…]-3′, SEQ ID NO: 14)

[3] = intraperitoneal (i.p.) injection, 25 μg rAPN or 50 μg 18 mer peptide

Question: What does the source list for “NH2-LQVYGDGDHNGLYADNVN-COOH (H-LQVYGDGDHNGLYADNVN-OH) [18 mer peptide, 18 mer synthetic peptide, amino acid residues 216-233 of mouse adiponectin globular domain]”?
Answer: reduction in CNV size compared to control ([1]; i-vit injection, single dose a day after laser, FIG. 7B): significant reduction; reduction in CNV size compared to control ([1]; i.p. injection, 50 μg/mouse, six daily injections, FIG. 7A): significant reduction; neovascular complex in laser spots, confocal micrograph ([1]; i.p. injection): significantly inhibited; reduction of CNV size compared to control mice [1]: 70%; decrease in CNV size compared to control mice [1, 3]: ~80%; neovascular complex in laser spots, confocal micrograph ([1]; intravitreal injection): significantly inhibited; decrease in CNV size compared to control mice ([1]; intravitreal injection): about 70%; effect on CNV size compared among adiponectin peptides (words) [1]: as effective as the intact adiponectin protein; effect on CNV size compared among adiponectin peptides (words) ([1]; listed as 18 mer synthetic peptide): reduced the size of CNV similarly

B1: rAPN: mouse recombinant adiponectin polypeptide of about 30 kDa obtained from BioVision Research Products (protein, UniProt Q60994 18-247, looked up)
Adiponectin: EDDVTTTEELAPALVPPPKGTCAGWMAGIPGHPGHNGTPGRDGRDGTPGEKGEKGDAGLLGPKGETGDVGMTGAEGPRGFPGTPGRKGEPGEAAYVYRSAFSVGLETRVTVPNVPIRFTKIFYNQQNHYDGSTGKFYCNIPGLYYFSYHITVYMKDVKVSLFKKDKAVLFTYDQYQEKNVDQASGSVLLHLEVGDQVWLQVYGDGDHNGLYADNVNDSTFTGFLLYHDTN
Question: With B1 as the molecule, how does the “VEGF expression in the choroids of laser-treated mice” value [2] read?
Answer: inhibited VEGF expression

Question: And the “neovascular complex in laser spots, confocal micrograph” value ([1]; i.p. injection)?
Answer: significantly inhibited

Question: And the “reduction of CNV size compared to control mice” value [1]?
Answer: 70%

Question: And the “decrease in CNV size compared to control mice” value (“decrease in CNV size” below) [1, 3]?
Answer: 80%

Question: And the “decrease in CNV size” value ([1]; intravitreal injection)?
Answer: about 70%

Question: And the “decrease in CNV size” value ([1]; intravitreal injection, listed as APN)?
Answer: 70%

Question: And the “effect on CNV size compared among adiponectin peptides (words)” value [1]?
Answer: reduced the size of CNV similarly

Reference: patent US7964557B2, “Inhibition of wet type age related macular degeneration (AMD) by adiponectin or acrp 30” (University of Louisville Research Foundation, Inc., priority 2005, dated 2011)
